# Reference: patent EP0279787A1, “Pharmaceutical compositions with synergistic antisecretory action for the healing of gastroduodenal ulcer” (ISTITUTO DE ANGELI S.p.A., priority 1987, dated 1988)
# Test system: gastric acid secretion
# Test: Lumen perfused stomach of the anaesthetized rat: inhibition of acid secretion evoked by histamine plus acetylcholine
# Type: in vivo
# Settings: drug alone
# Procedure: Experiments in lumen perfused stomach of the anaesthetized rat were performed, evoking acid secretion by histamin (0.5 mg/kg/h i.v.) and acetylcholine (0.5 mg/kg/h i.v.) given in combination. These two combined secretagogues evoked a response which was about 80% of the maximal effect achievable by maximally effective dose of either acetylcholine (8 mg/kg/h i.v.) or histamine (8 mg/kg/h i.v.) alone.
# As soon as a steady level of acid output was reached, a combination of mifentidine/pirenzepine (1:10), or of DA-5047/pirenzepine (1:10) under the form of the compositions of the present invention, or mifentidine, DA-5047 and pirenzepine alone were administered intravenously. Each dose was administered to 8 animals.
# The obtained data were submitted to linear regression analysis in order to calculate the dose inhibiting 50% (ED₅₀) the response of which is reported in the following table II: […]
SMILES,Percent inhibition (dose 20 µg/kg i.v.),Percent inhibition (dose 40 µg/kg i.v.),Percent inhibition (dose 80 µg/kg i.v.),Percent inhibition (dose 200 µg/kg i.v.),Percent inhibition (dose 400 µg/kg i.v.),Percent inhibition (dose 800 µg/kg i.v.)
"Cc1nc(-c2ccc(N=CNC(C)C)cc2)c[nH]1 [DA-5047, N-isopropyl-Nʹ-[4-(2- -methyl-imidazol-4-yl)phenyl]-formamidine]",21%,34%,52%,–,–,–
"CC(C)NC=Nc1ccc(-c2c[nH]cn2)cc1 [Mifentidine, N-isopropyl-Nʹ-[4-(imidazol-4-yl)phenyl]-formamidines]",20%,36%,58%,–,–,–
"CN1CCN(CC(=O)N2c3ccccc3C(=O)Nc3cccnc32)CC1 [Pirenzepine, reference compound]",–,–,–,28%,46%,62%
